Test results from patent US5104880A, “Huperzine a analogs as acetylcholinesterase inhibitors” (Mayo Foundation for Medical Education and Research, priority 1991, dated 1992).
Where two headings read alike, the source gives them in different places.

Tests used:
[1] = test system: AChE; conditions: 0.65 mg/kg i.m.; cited from earlier work
[2] = test system: Alzheimer's Disease; conditions: cited from earlier work
[3] = 0.65 mg/kg i.m.; cited from earlier work
[4] = test system: animals; conditions: studies performed in China; cited from earlier work
[5] = test system: AChE; conditions: as AChE inhibitors for treatment of AD; cited from earlier work
[6] = molecular target: T1, AChE (Rattus norvegicus, UniProt P37136); test: biochemical
T1 construct: from tissue; host or cells: rat hippocampus, crude homogenate (P2 synaptosome-rich fraction)
T1 sequence (P37136 32-614): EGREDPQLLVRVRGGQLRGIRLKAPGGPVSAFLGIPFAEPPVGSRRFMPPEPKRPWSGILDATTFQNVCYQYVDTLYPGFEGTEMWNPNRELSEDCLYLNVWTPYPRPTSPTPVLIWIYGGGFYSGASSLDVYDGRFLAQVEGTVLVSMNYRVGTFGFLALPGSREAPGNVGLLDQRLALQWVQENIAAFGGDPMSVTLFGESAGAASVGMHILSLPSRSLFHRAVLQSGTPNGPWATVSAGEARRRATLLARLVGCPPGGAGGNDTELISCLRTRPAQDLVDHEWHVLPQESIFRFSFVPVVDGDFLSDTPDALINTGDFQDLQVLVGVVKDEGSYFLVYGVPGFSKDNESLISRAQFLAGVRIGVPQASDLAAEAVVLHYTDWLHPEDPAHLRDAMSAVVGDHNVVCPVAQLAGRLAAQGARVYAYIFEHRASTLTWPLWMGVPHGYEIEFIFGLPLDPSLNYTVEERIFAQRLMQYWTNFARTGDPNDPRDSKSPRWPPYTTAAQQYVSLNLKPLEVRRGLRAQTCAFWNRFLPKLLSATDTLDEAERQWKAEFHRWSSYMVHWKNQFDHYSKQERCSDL
Method: *Assayed using rat hippocampal crude homogenates over a concentration
in 10% DMSO made up in the incubation buffer medium. In addition, those
hydrochloric acid and sonicated briefly until they dissolved in the
solution. In each case, the control medium always consisted of the same
ingredients as those which were used to dissolve the compound under
The activity of these new compounds was assayed using AChE isolated from rat brain. […] Rats were killed by decapitation and the brains were extirpated rapidly. […] Homogenates were centrifuged at 1000×g for 10 min to remove cell nuclei and heavy debris. […] A portion of this synaptosome-rich fraction was added in triplicate to ice-cold pH 7.4 Krebs-Ringer medium.
Assay of AChE was carried out according to the method described in C. […] Tissue homogenate was incubated for 30 min at 30° C. in a final volume of […] containing 75 mM sodium phosphate buffer, pH 7.0, and 1.5 mM [^14 C]acetylcholine (1.9 mCi/mmol). […] The tubes were vortexed for 10 sec, then centrifuged for 1 min. The bottom aqueous layer was quickly frozen in a dry ice/acetone bath, and the top organic layer aspirated off. Finally, the buffer was allowed to thaw, and a 25 μl portion was counted for the amount of [^14 C]acetate formed. The amount of residual [^14 C]acetylcholine left in the buffer by the extraction step alone was determined by subtracting from the tissue sample values of [^14 C]acetylcholine measured in a blank sample that contained buffer and substrate, but no tissue.

[7] = test system: AChE; conditions: vs (±)-huperzine A; cited from earlier work
[8] = test system: myasthenia gravis; conditions: 128 patients; cited from earlier work
[9] = test system: mice; conditions: cited from earlier work
[10] = test system: squirrel monkeys; conditions: cited from earlier work

Compound: CNC(=O)Oc1ccc2c(c1)[C@]1(C)CCN(C)[C@@H]1N2C [physostigmine]
- maximal duration of action (AChE inhibitory action) [1]: ≤ 60 min
- cognitive improvement [2]: modest cognitive improvement
- side effects [3]: causes considerable side effects

Compound: CC1=C[C@H]2Cc3[nH]c(=O)ccc3[C@]3(C1)NCCC[C@H]23 [huperzine B]
- memory and learning [4]: improve memory and learning in animals
- comparison with THA and physostigmine [5]: appear superior to THA and physostigmine

Compound: CC1=CC2Cc3[nH]c(=O)ccc3C(N)(C1)/C2=C/Cl (stereo not shown) [Compound 13, 11-DESMETHYL-11-CHLORO-HUPERZINE A]
- IC50 ([6]; AChE IC50 (M)*, Table I, rat hippocampal crude homogenates, 10^-11 M to 10^-3 M, 10% DMSO in buffer): 8.09e-07 M

Compound: CC=C1C2CCCC1(N)c1ccc(=O)[nH]c1C2 (stereo not shown) [Compound 3, C15 -desmethyl-(C8 -C15)dihydrohuperzine]
- IC50 ([6]; AChE isolated from rat brain, read-out: IC50 value (AChE)): 1.3e-05 M
- fold less potent than natural huperzine A ([6]; considering the racemic nature of compound 3): at least fifty-fold

Compound: C/C=C1\C2C=C(C)CC1(CN)c1ccc(=O)[nH]c1C2 (stereo not shown)
- times less potent than (±)-huperzine A as an inhibiter of AChE [7]: about 166 times

Compound: CC=C1C2C=C(C)CC1(N)c1ccc(=O)[nH]c1C2 (single isomer, unassigned; (-)) [Compound 1a, (-)-Huperzine A]
- control of the clinical manifestations of myasthenia gravis (cases) [8]: 99%
- memory and learning [4]: improve memory and learning in animals
- cognition enhancement [9]: effective cognition enhancer
- cognition enhancement [10]: effective cognition enhancer
